Measured values from patent US9884012B2, “Use of PEDF-derived polypeptides for promoting muscle or tendon regeneration or arteriogenesis” (MacKay Memorial Hospital, priority 2012, dated 2018).
Marks after values point to notes of the source that are not given here.

Assays:
tendon stem cells (TSCs) = assay: TSCs proliferation assay (BrdU labeling) in vitro; type: cell-based, New Zealand White rabbits; settings: TSCs passage 4; 50 nM peptide, 5% FBS, 24 hours; BrdU pulse-labeling
Experimental: New Zealand White rabbits (6-8 months old, 3.0-4.0 kg) were used in this study. Achilles tendons were removed from the rabbits by cutting through their bony attachments. The tendon sheath was stripped away and the core portion of the tendons was minced into small fragments. Each 100 mg of fragment was then digested in a solution containing 3 mg/mL of type I collagenase and 4 mg/mL of dispase in 1 ml Dulbecco's Modified Eagle Medium (DMEM-high glucose) at 37° C. for 2 hours. The resultant cell suspension was centrifuged at 1,000 rpm for 15 minutes to obtain a cell pellet which was then resuspended in a growth medium consisting of DMEM supplemented with 10% heat inactivated fetal bovine serum (FBS), 100 μM 2-mercaptoethanol, and 100 U/ml penicillin and 100 μg/ml streptomycin. For passage, near-confluent cells were harvested with 0.25% trypsin and then 1×10^5 subcultured cells were further cultured in medium.
The TSCs at passage 4 were seeded at gelatin-coated slide in a 6-well plate at a density of 2×10^5 cells per well and cultured in growth medium (DMEM+10% FBS) for 24 hours before being replaced by a basal growth medium with 5% FBS only (control group) or with 5% FBS plus an additional 50 nM of PEDF-derived peptide (i.e., 29-mer, 24-mer, 20-mer, 18-mer, Mo 29-mer, or Mo 20-mer) for 24 hours. For BrdU labeling assay, BrdU (final concentration, 10 μM) was added to the culture for 4 hours. After fixing with 4% paraformaldehyde, cells were exposed to cold methanol for 2 minutes, and then treated with 1 N HCl at RT for 1 hour before performing immunofluorescence. The phenotype of passage 4 TSC was determined by immunocytochemistry of nucleostemin and type I collagen. Almost all of expanded TSCs were nucleostemin and type I collagen-double positive cells.
It has been reported that during the tendon healing process, tendon stem cells (TSCs) would proliferate and differentiate into tenocytes. To investigate whether present PEDF peptides would induce the proliferation of TSCs in vitro, tendons stem cells were isolated and cultured as described in the “Materials and Methods” section. The purity of TSCs was confirmed by a TSC marker, nucleostemin, as well as the expression of type I collagen by TSCs; together, these analyses indicated a TSC purity of near 100% (data not shown). The proliferation of TSCs was confirmed by BrdU pulse-labeling for 2 hours. Quantitative analysis of the level of BrdU-positive cells was performed as described above, and the results were summarized in Table 8.

[1] = system: tendon stem cells (TSCs) in injured tendon; assay: tendo Achilles injury model, in vivo TSC proliferation (nucleostemin staining); parameters: species or system Sprague-Dawley rats; settings: injured tendon specimens of Example 4.1; sustained-release formulation (Bolus: bolus 29-mer)
Experimental: De-paraffinized tissue sections or 4% paraformaldehyde fixed rabbit tendon stem cells (TSCs) were blocked with 10% goat serum and 5% BSA for 1 hour. Double staining was done using primary antibodies against α-SMA (1:100 dilution), IB4 (5 μg/ml), Pax7 (1:100 dilution), nucleostemin (1:100 dilution) and type I collagen 1A1 (1:50) at 37° C. for 2 hours, followed by incubation with the appropriate rhodamine- or FITC-conjugated donkey IgG for 1 hour at RT. Nuclei were located by counterstaining with Hoechst 33258 for 7 minutes. Images were captured using a Zeiss epifluorescence microscope with a CCD camera.
(§1) To investigate the effects of the present PEDF peptides on tendon regeneration, a rat model with tendon injury was established as follows. Adult 10-week-old male Sprague-Dawley rats (total n=50; initial body weight=312±11 g) were anesthetized by an intraperitoneal injection of a xylazine (10 mg/kg). Then, the left tendo Achilles injury was created by full-thickness insertion of an 18-gauge needle through tendo Achilles 1 cm proximal to its insertion into the calcaneum. This created a horizontal (transaction) wound which was flanked by intact tendon tissue on both sides to prevent the retraction of severed ends.
The rats were randomly assigned (n=10/group) to five experimental groups and treated as follows. In the blank control group, the mice were treated with 150 μl of blank alginate gel. For the bolus control group, 150 μl of the bolus formulation (29-mer) was administered. […]
Specimens obtained from animals in different experimental groups of Example 4.1 were stained for nucleostemin (green) to investigate whether in vivo TSC proliferation would be promoted by the present sustained-release formulation during the tendon wound healing process. In quantitative analysis, ten randomly selected microscopic fields in each experimental group were photographed, and the percentage of nucleostemin-positive cells per total cells (counterstained by Hoechst 33258; blue) was calculated.

tendo Achilles = tendo Achilles injury model, histology and collagen in regenerated area; type: in vivo, Sprague-Dawley rats; settings: three weeks after tendon injury; for Collagen in Regenerated Area (%): 150 μl sustained-release formulation (Bolus: bolus 29-mer) subcutaneously near tendon lesion
Experimental: De-paraffinized tendon tissue sections were stained using Masson's Trichrome according to the manufacturer's instructions. For semi-quantitative analysis of collagen area, 10 fields from each slide were randomly selected under a light microscope, and the repairing area per intact tendon area of the cross section (mm^2/mm^2) was measured using the Image-Pro Plus 4.5.1 system.
as §1
The rats were randomly assigned (n=10/group) to five experimental groups and treated as follows. In the blank control group, the mice were treated with 150 μl of blank alginate gel. For the bolus control group, 150 μl of the bolus formulation (29-mer) was administered. In the treatments groups, the mice received 150 μl of the sustained-release formulation (29-mer, 24-mer, or 20-mer). Treatments were injected subcutaneously near tendon lesion immediately after the injury, and the incision was closed after the wound was irrigated with sterile saline.
Three weeks after tendon injury, histologic analysis was performed to observe the healing of the tendon. As could be seen in the upper panel of FIG. 10, in animals treated with blank control, a broad band of disorganized fibrous scar was formed between the two cut ends, and the pink stained collagen bundle was minimal in the scar tissue. […] Also, the fibrous tissue in the scar was more organized and in parallel direction in the 29-mer treatment group.
Quantitative analysis was also performed to assess the percentage of collagen (%) in the regenerated area, and results were summarized in Table 7.

aortic ring explants = assay: rat aortic ring sprouting assay (ex vivo neovessel sprouting); type: cell-based; settings: day 4; 50 ng/ml PEDF peptide, 50 ng/ml VEGF-A, 20 ng/ml FGF-2; MCDB131, 1% FBS, Matrigel
Experimental: To further confirm the neovessel development promoted by PEDF peptides, rat aortic ring sprouting assay was performed. Thoracic aortas were removed from euthanized rats and gently stripped of peri-aortic fibroadipose tissue. Aortas were sectioned into about 2-mm length rings, which were then embedded in a growth factor-reduced Matrigel. Gels containing the aortic rings were polymerized in 12-well plates incubated at 37° C. for 30 minutes. 1 ml of MCDB131 medium supplemented with 100 units/ml penicillin and […] streptomycin, 1% FBS, and a supplemental agent (50 ng/ml VEGF-A, 20 ng/ml FGF-2, or 50 ng/ml 29-mer, 24-mer, 20-mer, Mo 29-mer, Mo 20-mer, 25-mer, or 18-mer) were added to the Matrigel-containing explants. The cultures were propagated at 37° C. in a humidified incubator for up to 4 days, with media changes every other day. Neovessel sprouting was assessed until day 4 using an inverted microscope platform (Leica) with bright-field optics; representative photographs were provided in FIG. 6. Quantification of neovessel sprouting was assessed using Image-Pro Plus 6.0 software (Dendrites program). The experiment was repeated in triplicate.

Sequence	BrdU Labeling Index (%) (tendon stem cells (TSCs))	Nucleostemin Labeling Index (%) [1] [%]	Collagen in Regenerated Area (%) (tendo Achilles)	Neovessel Sprouting Fold (aortic ring explants)	tendon healing, histology of cut ends (tendo Achilles; sustained-release formulation, in words)
SLGAEQRTESIIHRALYYDLISSP [24-mer, synthetic peptide corresponding to residues 93-116 of human PEDF]	29.0 ± 4.6	16.8 ± 4.2	85.75 ± 2.56	6.2* fold of untreated aortic ring	
SLGAEQRTESIIHRALYYDL [20-mer, synthetic peptide corresponding to residues 93-112 of human PEDF]	33.2 ± 6.6	15.0 ± 3.9	82.01 ± 6.55	6.5* fold of untreated aortic ring	
SLGAEQRTESIIHRALYYDLISSPDIHGT [29-mer, synthetic peptide corresponding to residues 93-121 of human PEDF]	31.8 ± 3.6	16.4 ± 2.9	88.75 ± 1.89	5.6* fold of untreated aortic ring	healed with much lesser scar tissue
